Columns and labels:
[1] = Solubility determination of probucol in oils and binary solvent systems (HPLC assay); assay type: physicochemical
Source text: Captex® 200 is a propylene glycol ester of caprylic (C₈) and capric (C₁₀) fatty acids obtained by fractionation of certain coconut oil fatty acids and is known generically as propylene glycol dicaprylate/dicaprate. Captex® 300 is a caprylic and capric acid triglyceride obtained by fractionation and subsequent esterification of coconut oil and is known generically as caprylic/capric triglyceride. Capmul® MCM is a mono and diglyceride of caprylic and capric acids.
Eight grams of each oil were transferred into a glass tube with a teflon liner screw cap, and 2.5 g of probucol were added to each tube. The tubes were capped and shaken by hand until the probucol particles were wetted. The tubes were then rotated for at least 48 hours on a test tube rotating apparatus. The solubility of probucol was determined using a high performance liquid chromatography (HPLC) assay procedure.
In order to determine if the solubility of probucol could be enhanced by incorporating absolute ethanol in the oil, three binary systems: safflower oil:ethanol (90:10), polyethylene glycol (PEG) 400:ethanol (90:10, 80:20, 70:30), and Captex® 200:ethanol (95:5, 90:10, 85:15, 80:20, and 75:25) were evaluated. The solubility data shown in Table II indicate that in each case the solubility of probucol increased in the presence of ethanol.

[2] = Heeg and Tachizawa 1980; cited from earlier work

SMILES: CC(C)(Sc1cc(C(C)(C)C)c(O)c(C(C)(C)C)c1)Sc1cc(C(C)(C)C)c(O)c(C(C)(C)C)c1 [probucol, 2,2'-bis (3,5-di-tertiarybutyl-4-hydroxyphenylthio)propane]
- Solubility (%w/v) ([1]; Captex® 200:Ethanol 75:25): 26.0 %w/v
- Solubility (%w/v) ([1]; Captex® 200:Ethanol 80:20): 26.0 %w/v
- Solubility (%w/v) ([1]; Captex® 200:Ethanol 85:15): 25.0 %w/v
- Solubility (%w/v) ([1]; Captex® 200:Ethanol 90:10): 24.0 %w/v
- Solubility (%w/v) ([1]; Captex® 200:Ethanol 95:5): 23.0 %w/v
- Solubility (%w/v) ([1]; PEG 400 100:00): 2.8 %w/v
- Solubility (%w/v) ([1]; PEG 400:Ethanol 80:20): 9.5 %w/v
- Solubility (%w/v) ([1]; PEG 400:Ethanol 90:10): 5.8 %w/v
- Solubility (%w/v) ([1]; PEG 400 Ethanol 70:30): 13.1 %w/v
- Solubility (%w/v) ([1]; Safflower Oil:Ethanol 90:10): 11.5 %w/v
- Solubility (%w/v) ([1]; in Capmul® MCM): 6.3 % w/v
- Solubility (%w/v) ([1]; in Captex® 200): 18.2 % w/v
- Solubility (%w/v) ([1]; in Captex® 300): 12.5 % w/v
- Solubility (%w/v) ([1]; in Corn oil): 5.8 % w/v
- Solubility (%w/v) ([1]; in Olive oil): 5.5 % w/v
- Solubility (%w/v) ([1]; in Peanut oil): 5.6 % w/v
- Solubility (%w/v) ([1]; in Safflower oil): 5.9 % w/v
- Solubility (%w/v) ([1]; in Sunflower oil): 5.8 % w/v
- Solubility (%w/v) ([1]; in Vegetable oil): 5.8 % w/v
- bioavailability of probucol from tablet dosage form [2]: 2-8%

Reference: patent publication EP0563112B1, “ENHANCED BIOAVAILABILITY PHARMACEUTICAL COMPOSITION CONTAINING PROBUCOL” (MERRELL DOW PHARMACEUTICALS INC., priority 1990, dated 1992)
